Results from patent publication US20260166016A1, “GPR139 RECEPTOR AGONIST, PREPARATION METHOD THEREFOR, AND APPLICATION THEREOF” (NEUBO APPTECH CO., LTD., priority 2022, published 2026).

Legend:
[1] = test system: metabolic enzymes of pentobarbital sodium; test: LC-MS detection of pentobarbital sodium content in anesthetized mice (pilot experiment); format: in vivo, mouse; conditions: pentobarbital sodium content in mice by LC-MS, placebo vs compound
Source text: In addition, to determine whether compound NRB181 has an effect on the metabolic enzymes of pentobarbital sodium, we used LC-MS method to detect the pentobarbital sodium content in mice anesthetized with pentobarbital sodium under placebo and compound action in the pilot experiment.

GPR139 = target: T1, GPR139 (Homo sapiens, UniProt Q6DWJ6); test: GPR139 FLIPR cell calcium signal detection in GPR139-transfected HEK293 cells; format: cell-based; conditions: HEK293 cells transfected with GPR139, read-out: EC50 values of compounds for GPR139
T1 construct: expressed in transfected cells; host or cells: HEK293
T1 sequence (Q6DWJ6 1-353): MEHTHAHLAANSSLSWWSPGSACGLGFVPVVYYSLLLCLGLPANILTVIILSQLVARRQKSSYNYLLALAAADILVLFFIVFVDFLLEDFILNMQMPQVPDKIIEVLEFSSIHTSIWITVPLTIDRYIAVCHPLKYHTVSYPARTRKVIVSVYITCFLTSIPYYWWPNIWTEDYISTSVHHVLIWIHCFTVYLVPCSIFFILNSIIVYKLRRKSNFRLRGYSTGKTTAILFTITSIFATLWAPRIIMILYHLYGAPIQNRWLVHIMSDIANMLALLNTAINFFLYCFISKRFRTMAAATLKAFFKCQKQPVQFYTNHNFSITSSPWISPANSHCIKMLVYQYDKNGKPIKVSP
Procedure: HEK293 cells were grown in a 10 cm culture dish containing DMEM complete medium (containing glutamine, sodium pyruvate, penicillin/streptomycin, 10% fetal bovine serum) and incubated at 37° C. in a 5% CO2 incubator until 90% confluency. Then subculture twice a week at a ratio of 1:5. During cell passaging, the culture medium was first completely removed, washed once with 4 mL of DPBS, and then 3 mL of trypsin digestion solution was added and mixed well. When cell dissociation was observed, the trypsin solution was aspirated and 5 mL of complete DMEM medium was added. The cells were dispersed by pipetting, and 1 mL of cell suspension was added to each of five new 10 cm culture dishes. Then, 7 mL of complete DMEM medium was supplemented to each dish. After mixing, the cells were cultured at 37° C. in a 5% CO2 incubator.
On the transfection day, cells were digested and seeded into one 10 cm culture dish at appropriate density. 6 mL of DMEM/F12 medium (containing glutamine, sodium pyruvate, HEPES, and fetal bovine serum) was added, and the cells were cultured for 5 hours at 37° C. in 5% CO2. A 50 mL sterile centrifuge tube (Tube A) was taken, and 1 mL of serum-free DMEM/F12 medium (containing glutamine, sodium pyruvate, and HEPES) was added, followed by 10 μg of GPR139 DNA. The mixture was mixed well. Another 50 mL sterile centrifuge tube (Tube B) was taken, and 1 mL of serum-free DMEM medium (containing glutamine, sodium pyruvate, and HEPES) was added, followed by 60 μL of Fugene HD transfection reagent. The mixture was mixed well. 1 mL of Fugene HD transfection reagent from Tube B was transferred to Tube A, mixed well, and incubated at room temperature for 20 minutes. 2 mL of DMEM/F12 medium (containing glutamine, sodium pyruvate, HEPES, and fetal bovine serum) was added to Tube A. After mixing, 4 mL of mixture from Tube A was transferred to the prepared 10 cm dish (total volume 10 mL). The cells were cultured for 20-24 hours at 37° C. in 5% CO2.
The next day, the transfected cells were digested with trypsin digestion solution, and appropriate DMEM/F12 medium (containing glutamine, sodium pyruvate, HEPES, penicillin/streptomycin, fetal bovine serum) was added. The cells were seeded into Matrigel coated 384-well plates with a cell density of 6.67×10^6 cells/mL, 30 μL/well. The 384-well plates were cultured at 37° C. in 5% CO2.
On the third day, 10 μL/well of FLIPR dye (diluted in HEPES solution containing Pluronic and Probenecid) was added to the 384-well cell plate. And the plate was incubated for 40 minutes at 37° C. in 5% CO2. Diluted compounds were added to the cell plate and calcium signals were measured using a FLIPR plate reader.
Data were analyzed using XL-fit software to obtain EC50 values for each compound.

## C[C@H](NC(=O)CNC(=O)c1cc(Cl)ccn1)c1c(F)cccc1F [NRB181]
[1]
  effect on the metabolic enzymes of pentobarbital sodium: no effect
GPR139
  EC50: 0.1 to 100 nM
